In patent US6004959A, “Alkyloxyamino substituted fluorenones and their use as protein kinase-C inhibitors” (Hoechst Marion Roussel, Inc., priority 1997, dated 1999):
pIC50: −log10 of the molar value. Structures can show the parent of a compound that is named as a salt.

Target: Protein kinase C (PKC)
Experiment: Protein kinase C assay (96-well, H1 histone phosphorylation, 32P-ATP)
Type: biochemical
Details: PKC partially purified from rat brain; H1 histone 200 μg, 50 μM ATP, 5-7 min, room temperature; estimated error of IC50 less than 10%
Protocol: Protein kinase C (PKC) was partially purified from the cytosol of rat brains as described by […]., Thromb. Res. 44:649-660, 1986. After removing the brains, all manipulations were carried out at 4° C. Briefly, the cerebellum was removed from 8-10 rat brains and each brain was then homogenized in 9 ml sucrose/EDTA (0.32 M sucrose, 1 mM EDTA, 5 mM Tris, pH 7.4). The pooled homogenate was then centrifuged at 1000×g for 10 min at 4° C., the pellet resuspended in the same volume of fresh sucrose/EDTA and recentrifuged at 1000×g for 10 min. at 4° C. The supernatants from each of these spins was pooled and centrifuged at 25,700×g for 30 min. at 4° C., and the resulting pellet homogenized in 20 ml of buffer A. (20 mM Tris pH 7.5, 0.1 mM calcium chloride, 0.4 mM leupeptin), at 4° C. Membrane associated PKC was then pelleted by centrifugation at 45,700×g at 4° C. for 15 min. and resuspended in 20 ml of buffer A. This step was repeated for a total of 3 centrifugations, discarding the supernatants and finally resuspending the pellet in 20 ml of buffer B (20 mM Tris pH 7.5, 1 mM EGTA, 1 mM EDTA, and 0.01 mM leupeptin) and stirring on ice for 30 min. Disassociated PKC was then collected by centrifuging at 45,700×g at 4° C. for 15 min. The pellet was discarded and the supernatant centrifuged at 100,000×g at 4° C. for 60 min. The pellet was again discarded and the supernatant was adjusted to remove all EDTA and EGTA by adding sufficient volume of a stock solution containing 100 mM each CaCl2 and MgCl2 to give a final concentration of 1 mM Ca^++ and 1 mM Mg^++. The resulting slurry was then applied to a 12 cm×1 cm DE-52 (DEAE cellulose, Whatman®) column previously equilibrated with buffer B. […] After washing the column with 70 ml of buffer B to remove unbound proteins, undesired proteins were eluted with 40 ml of buffer B containing 40 mM NaCl and the PKC containing fraction eluted with 20 ml of buffer B containing 150 mM NaCl. The PKC eluate was then concentrated to about 5 ml using an Amicon® ultrafiltration cell fitted with a PM-10 membrane, and excess NaCl removed by adding back 30 ml 5 mM Tris pH 7.4 and reconcentrating to a final volume of about 5 ml. The concentrated and desalted PKC prep was then adjusted to contain 10% glycerol and 0.5% Triton X-100 before aliquoting and storing 200 μL volumes at -70° C. Frozen preps were stable for at least 3 months at -70°0 C. Protein kinase C was assayed using a semi-automated 96-well plate procedure based upon the procedures of Aftab and Hait, and […] and Vial (Aftab, D. T. and W. N. Hait., Anal Biochem. 187:84-88. 1990.; […]. and Vial, H. J., Anal Biochem. 184:283-290. 1990). Briefly, each well of a 96 well "u" well microtiter plate received a total of 100 μl assay volume consisting of final concentrations of 30 mM Tris pH 7.4, 10 mM MgSO4, 1 mM EGTA, 200 μg Hl histone (Sigma Type III-S H5505), 50 μM ATP, 0.5 μCi 30 Ci/mmol ^32 P-ATP, and 30 μl PKC extract diluted in 5 mM Tris, pH 7.4 containing 1 mg per ml each of leupeptin, pepstatin and chymastatin, and 1 mM phenylmethylsulfonylfluoride. Reactions were started by adding the PKC extract and stopped by the addition of 50 μl 40% trichloroacetic acid, followed by 25 μl of 50 mM unlabelled ATP and 25 μl of 0.5% bovine serum albumin, and then collected on glass fiber filters using a Skatron® automatic micro cell harvester. Samples were washed for 30 seconds with 5% trichloroacetic acid, dried for 5 seconds on the harvester, and then transferred to scintillation vials for counting and subsequent data analysis. Reactions were run for five to seven minutes at room temperature. Data were fit to a competitive binding curve using the ENZFITTER® program (Biosoft). The error estimated for the IC50 values was less than 10%.

Row | SMILES | pIC50
1 | CCN(CC)CCOc1cc(OC)c2c(c1)C(=O)c1cccc(OCCN(CC)CC)c1-2 [I.D. No. 105,711, 2,5-bis-(2-diethylamino-ethoxy)-4-methoxy-fluoren-9-one] | 5.96
2 | CCN(CC)CCOc1ccc2c(c1)-c1c(OCCN(CC)CC)cccc1C2=O [I.D. No. 104,004, 3,5-Bis[(2-diethylamino)ethoxy]-fluoren-9-one] | 5.40
3 | CCN(CC)CCOc1ccc2c(c1)C(=O)c1cccc(OCCN(CC)CC)c1-2 [I.D. No. 11,080, 2,5-Bis[(2-diethylamino)ethoxy]-fluoren-9-one] | 5.52
4 | CCCOc1cc(OC)c2c(c1N)C(=O)c1cccc(OCCN3CCOCC3)c1-2 [I.D. No. 104,427, 5-[2-(morpholino-4-yl)-ethoxy]-1-amino-4-methoxy-2-propyloxy-fluoren-9-one hydrochloride] | 5.64
5 | CCCOc1cc(OC)c2c(c1)C(=O)c1cccc(OCCN3CCOCC3)c1-2 [I.D. No. 104,439, 5-[2-(morpholino-4-yl)-ethoxy]-4-methoxy-2-propyloxy-fluoren-9-one hydrochloride] | < 5.00
6 | CCN(CC)CCOc1cccc2c1-c1c(OC)cc(OC)cc1C2=O [I.D. No. 105,950, 5-(2-Diethylamino-ethoxy)-2,4-dimethoxy-fluoren-9-one] | 6.05
7 | CCN(CC)CCOc1cccc2c1-c1c(OC)cccc1C2=O [I.D. No. 104,652, 4-(2-diethylamino-ethoxy)-5-methoxy-fluoren-9-one] | 6.00
8 | CCCOc1cc(OC)c2c(c1)C(=O)c1cccc(OCCN(CC)CC)c1-2 [I.D. No. 104,952, 5-(2-diethylamino-ethoxy)-4-methoxy-2-propoxy-fluoren-9-one] | 6.24
9 | CCN(CC)CCCOc1cccc2c1-c1ccc(OC)cc1C2=O [I.D. No. 103,388, 5-(3-Diethylamino-propoxy)-2-methoxy-fluoren-9-one] | 4.25
10 | CCN(CC)CCOc1cccc2c1-c1c(OCCN(CC)CC)cccc1C2=O [I.D. No. 104,488] | 4.04
11 | CCCOc1cc(OC)c2c(c1N)C(=O)c1cccc(OCCN(CC)CC)c1-2 [I.D. No. 105,509, 1-Amino-5-(2-diethylamino-ethoxy)-4-methoxy-2-propoxy-fluoren-9-one] | 7.10
12 | CCN(CC)CCOc1cccc2c1C(=O)c1cccc(OCCN(CC)CC)c1-2 [I.D. No. 104,147, 1,5-Bis[(diethylamino)ethoxy]-fluoren-9-one] | 4.82
13 | CCN(CC)CCOc1cccc2c1-c1ccc(OC)cc1C2=O [I.D. No. 103,949, 5-(2-Diethylamino-ethoxy)-2-methoxy-fluoren-9-one] | 5.15
14 | CCCOc1ccc2c(c1)C(=O)c1cccc(OCCN(CC)CC)c1-2 [I.D. No. 103,049, 5-(2-Diethylamino-ethoxy)-2-propoxy-fluoren-9-one] | 5.05
15 | CN(C)CCCOc1ccc2c(c1)C(=O)c1cccc(OCCCN(C)C)c1-2 [I.D. No. 102,352, 2,5-Bis-(3-dimethylamino-propoxy)-fluoren-9-one] | 4.30
16 | CCN(CC)CCOc1cccc2c1-c1c(OC)cc(OC)c(N)c1C2=O [I.D. No. 105,473, 1-Amino-5-(2-diethylamino-ethoxy)-2,4-dimethoxy-fluoren-9-one hydrochloride] | 6.80
17 | CN(C)CCOc1ccc2c(c1)C(=O)c1cccc(OCCN(C)C)c1-2 [I.D. No. 101,209, 2,5-Bis-(2-dimethylamino-ethoxy)-fluoren-9-one] | 4.96
